Data on 39 molecules can be found in patent US7736537B1, “Replacement solvents having improved properties for refrigeration flushes” (Mainstream Engineering Corp., priority 2008, dated 2010).

For series [1] the following is noted: Table 1; cited from earlier work.
The conditions of series [2]: solubility parameter, Table 1; cited from earlier work.
On series [3], the source says:
Parameters such as the lethal dose 50 (LD50), lethal concentration 50 (LC50), cardiac sensitization, skin irritation, and mutagenicity (e.g., via the Ames test) can be used as toxicity metrics. The LDn or LCn abbreviations, where n is the percent lethality, are used for the dose of a toxicant lethal to n % of a test population. […] Cardiac sensitization is a measure of the ability of a compound to cause cardiac arrhythmia under stress.
The property modification components are chosen from a list of potential replacement solvents. These compounds included halogenated compounds such as halogenated acetates, alcohols, alkanes, cycloalkanes, alkenes, cycloalkenes, amines, anhydrides, aromatics, carbonyls, diones, esters, ethers, heterocyclics and ketones.

[4] abbreviates: cardiac sensitization relative to CFC-113.

Like-named read-outs stand apart in the source and are kept apart here.

In the case of `FC1C(F)C(F)(F)C(F)(F)C(F)C1(F)F` (stereo not shown) [1H,2H,4H-nonafluorocyclohexane], the BP in series [1] is listed as 65.0 C. Also, the SP in series [2] was 7.02 (cal/cm^3)^1/2. Further, in series [3] (setting [4]), the CS/CS113 is reported as 18.5.

In the case of `FC(F)(Br)OC=C(C(F)(F)F)C(F)(F)F` [1-(bromodifluoromethoxy)-2-(trifluoromethyl)-3,3,3-trifluoro-1-propene], the BP in series [1] is 78.3 C. The SP in series [2] was 7.26 (cal/cm^3)^1/2. In series [3] (setting [4]), the CS/CS113 is listed as 151.6.

With `FC(F)(F)O/C=C\OC(F)(F)Br` [(Z)-1-(bromodifluoromethoxy)-2-(trifluoromethoxy)ethene], in series [1], the BP is reported as 76.5 C. For the same molecule, in series [2], the SP is 7.79 (cal/cm^3)^1/2. In addition, in series [3] (setting [4]), the CS/CS113 turned out to be 144.9.

On to `F/C(=C(\Br)C(F)(F)F)C(F)(F)F` [(Z)-2-bromo-1,1,1,3,4,4,4-heptafluoro-2-butene], for which the BP in series [1] was 49.0 C. For the same molecule, the SP in series [2] is on record as 6.79 (cal/cm^3)^1/2. For the same molecule, the CS/CS113 in series [3] (setting [4]) is recorded as 48.6.

In the case of `FC(F)(F)O/C=C/OC(F)(F)Br` [(E)-1-(bromodifluoromethoxy)-2-(trifluoromethoxy)ethene], in series [1], the BP is reported as 76.5 C. For the same molecule, the SP in series [2] is on record as 7.79 (cal/cm^3)^1/2. In series [3] (setting [4]), the CS/CS113 is 144.9.

With `FC1(F)C(Cl)=C(Cl)C(F)(F)C(F)(F)C1(F)F` [1,2-dichloro-3,3,4,4,5,5,6,6-octafluoro-cyclohexene], the BP in series [1] is on record as 123.8 C. For the same molecule, the SP in series [2] is given as 7.55 (cal/cm^3)^1/2. The CS/CS113 in series [3] (setting [4]) is reported as 15.5.

Regarding 1-bromo-bis(perfluoromethyl)ethylene, in series [1], the BP is 45.1 C. In series [2], the SP is 7.06 (cal/cm^3)^1/2. Besides, the CS/CS113 in series [3] (setting [4]) is 42.7.

Turning to `Fc1c(F)c(C(F)(F)F)c(F)c(F)c1Br` [4-bromoheptafluorotoluene], the BP in series [1] is listed as 151.3 C. Besides, the SP in series [2] is reported as 7.66 (cal/cm^3)^1/2. In addition, the CS/CS113 in series [3] (setting [4]) is 37.9.

On to `CC(=O)C(F)(F)C(F)(F)C(F)(F)F` [methyl heptafluoropropyl ketone], for which, in series [1], the BP is 63.5 C. The SP in series [2] is 7.32 (cal/cm^3)^1/2. Besides, the CS/CS113 in series [3] (setting [4]) is reported as 25.4.

Turning to `F/C(=C(/Br)C(F)(F)F)C(F)(F)F` [(E)-2-bromo-1,1,1,3,4,4,4-heptafluoro-2-butene], in series [1], the BP was 49.0 C. Moreover, the SP in series [2] was 6.82 (cal/cm^3)^1/2. Besides, in series [3] (setting [4]), the CS/CS113 was 48.6.

On to `CCOC(F)(F)C(F)(F)C(F)(F)C(F)(F)F` [ethyl-perfluorobutyl ether], for which the BP in series [1] was 73.0 C. Further, the SP in series [2] was 6.85 (cal/cm^3)^1/2. The CS/CS113 in series [3] (setting [4]) was 69.0.

On to `FC(F)(F)C(=CBr)C(F)(F)F` [1-bromo-2-(trifluoromethyl)-3,3,3-trifluoropropene], for which the BP in series [1] is reported as 49.3 C. For the same molecule, the SP in series [2] is 6.95 (cal/cm^3)^1/2. Moreover, in series [3] (setting [4]), the CS/CS113 is on record as 49.4.

Regarding `COC(F)=C(C(F)(F)F)C(F)(F)F` [1-methoxy-2-trifluoromethyl-1,3,3,3-tetrafluoro-1-propene], in series [1], the BP was 44.5 C. For the same molecule, the SP in series [2] is on record as 7.09 (cal/cm^3)^1/2. Also, the CS/CS113 in series [3] (setting [4]) is reported as 154.6.

`FC(C(F)C(F)(F)C(F)(F)F)C(F)(F)F` (stereo not shown) [2H,3H-decafluoropentane]: the BP in series [1] was 55.0 C. Besides, the SP in series [2] is reported as 6.84 (cal/cm^3)^1/2. In addition, in series [3] (setting [4]), the CS/CS113 is 91.5.

`Fc1c(F)c(F)c(C(F)(F)F)c(F)c1F` [perfluorotoluene]: the BP in series [1] is listed as 104.0 C. In addition, the SP in series [2] is 7.70 (cal/cm^3)^1/2. In series [3] (setting [4]), the CS/CS113 is on record as 64.0.

On to `O=C(CC(F)(F)F)CC(F)(F)Br` [1,1,5,5,5-pentafluoro-1-bromo-3-pentanone], for which the BP in series [1] is recorded as 118.4 C. Also, the SP in series [2] is 7.89 (cal/cm^3)^1/2. The CS/CS113 in series [3] (setting [4]) is given as 34.2.

With `C=CC(F)(Cl)C(F)(F)Br` (stereo not shown) [4-bromo-3-chloro-3,4,4-trifluoro-1-butene], in series [1], the BP was 99.7 C. Besides, the SP in series [2] is reported as 7.76 (cal/cm^3)^1/2. In addition, the CS/CS113 in series [3] (setting [4]) was determined as 0.8.

In the case of `FC(F)(F)/C=C\C(F)(F)Br` [(Z)-1-bromo-1,1,4,4,4-pentafluoro-2-butene], the BP in series [1] is given as 40.0 C. Moreover, the SP in series [2] is listed as 7.25 (cal/cm^3)^1/2. Moreover, in series [3] (setting [4]), the CS/CS113 is recorded as 36.6.

Take `FC(F)(F)/C(Cl)=C(\Cl)C(F)(F)F` [(E)-2,3-dichlorohexafluoro-2-butene]: the BP in series [1] was 68.5 C. For the same molecule, the SP in series [2] is recorded as 7.15 (cal/cm^3)^1/2. Also, the CS/CS113 in series [3] (setting [4]) was 72.4.

In the case of `FC(F)=C(F)C(F)(F)CBr` [4-bromo-1,1,2,3,3-pentafluorobutene], in series [1], the BP was 80.4 C. For the same molecule, the SP in series [2] is listed as 7.79 (cal/cm^3)^1/2. Besides, in series [3] (setting [4]), the CS/CS113 is recorded as 25.3.

Turning to `CCOC(F)(F)C(F)Cl` (stereo not shown) [2-chloro-1,1,2-trifluoroethyl ethyl ether], the BP in series [1] is 88.9 C. In series [2], the SP was 7.50 (cal/cm^3)^1/2. The CS/CS113 in series [3] (setting [4]) worked out at 15.0.

On to `FC(F)OC(F)(F)C(F)Cl` (stereo not shown) [2-chloro-1,1,2-trifluoroethyl difluoromethyl ether, reference compound], for which, in series [1], the BP is reported as 56.7 C. Also, the SP in series [2] was 7.71 (cal/cm^3)^1/2. For the same molecule, in series [3], the CS/CS113 is listed as 35.5.

On to `COC(F)(F)C(F)(F)C(F)(F)C(F)(F)F` [methyl perfluorobutyl ether], for which the BP in series [1] is given as 51.0 C. Further, the SP in series [2] was 6.75 (cal/cm^3)^1/2. In addition, the CS/CS113 in series [3] (setting [4]) was 53.5.

As for `FC(F)(Cl)C(F)(Cl)Cl` [CFC-113, 1,1,2-trichloro-1,2,2-trifluoroethane, reference compound], in series [1], the BP was 47.6 C.

In the case of `F/C(OC(F)(F)Br)=C(\F)C(F)(F)F` [(Z)-1-(bromodifluoromethoxy)-1,2,3,3,3-pentafluoro-1-propene], the BP in series [1] is on record as 65.2 C. The SP in series [2] is recorded as 7.22 (cal/cm^3)^1/2. In addition, the CS/CS113 in series [3] (setting [4]) is reported as 70.1.

Consider `FC(=C(C(F)(F)F)C(F)(F)F)C(F)(F)Br` [4-bromo-1,1,1,3,4,4-hexafluoro-2-(trifluoromethyl)-2-butene], for which the BP in series [1] is 68.1 C. Besides, the SP in series [2] is on record as 6.51 (cal/cm^3)^1/2. For the same molecule, the CS/CS113 in series [3] (setting [4]) worked out at 103.2.

On to `FC(F)OC(Cl)C(F)(F)F` (stereo not shown) [1-chloro-2,2,2-trifluoroethyl difluoromethyl ether, reference compound], for which the BP in series [1] is recorded as 48.8 C. For the same molecule, the SP in series [2] is 7.58 (cal/cm^3)^1/2. For the same molecule, the CS/CS113 in series [3] (setting [4]) was determined as 50.2.

Consider `FC(F)=C(F)OC(F)(F)C(F)(F)Br` [2-bromo-1,1,2,2-tetrafluoroethoxy-trifluoroethene], for which, in series [1], the BP was 81.9 C. For the same molecule, in series [2], the SP was 7.30 (cal/cm^3)^1/2. Moreover, the CS/CS113 in series [3] (setting [4]) is listed as 33.0.

On to `FC(Cl)C(F)(F)C(F)(F)Cl` (stereo not shown) [1,3-dichloro-1,1,2,2,3-pentafluoropropane], for which the BP in series [1] is reported as 52.7 C. In series [2], the SP is 7.31 (cal/cm^3)^1/2. Also, in series [3] (setting [4]), the CS/CS113 is listed as 9.2.

For `F/C(Br)=C(/F)OCC(F)(F)F` [(Z)-1-bromo-1,2-difluoro-2-(2,2,2-trifluoroethoxy)-ethene], in series [1], the BP is reported as 87.9 C. Moreover, the SP in series [2] is 7.61 (cal/cm^3)^1/2. For the same molecule, the CS/CS113 in series [3] (setting [4]) amounted to 52.7.

Turning to `FC(F)(F)C(F)(F)C(F)(F)C(F)(F)OC(F)(F)C(F)(F)C(F)(F)C(F)(F)F` [perfluorodibutyl ether], the BP in series [1] is reported as 110.1 C. Moreover, in series [2], the SP is 6.65 (cal/cm^3)^1/2. Moreover, the CS/CS113 in series [3] (setting [4]) turned out to be 896.2.

Turning to `FC(F)(F)/C=C(/Br)C(F)(F)F` [(E)-2-bromo-1,1,1,4,4,4-hexafluoro-2-butene], in series [1], the BP is on record as 45.1 C. For the same molecule, the SP in series [2] is 7.06 (cal/cm^3)^1/2. Also, the CS/CS113 in series [3] (setting [4]) was determined as 42.7.

For `FC1(F)C(Cl)=C(Cl)C(F)(F)C1(F)F` [1,2-dichloro-hexafluoro-cyclopentene], the BP in series [1] is on record as 90.0 C. Besides, in series [2], the SP was 7.90 (cal/cm^3)^1/2. In addition, the CS/CS113 in series [3] (setting [4]) was found to be 9.9.

With `FC(F)(F)c1cc(C(F)(F)F)c(Br)c(C(F)(F)F)c1` [1-bromo-2,4,6-tris(trifluoromethyl)benzene], the BP in series [1] is given as 173.4 C. The SP in series [2] is 7.76 (cal/cm^3)^1/2. The CS/CS113 in series [3] (setting [4]) is 113.0.

Turning to `FC1=C(OCC(F)(F)F)C(F)(F)C(F)(F)C(F)(F)C1(F)F` [1-(2,2,2-trifluoroethoxy)nonafluoro-cyclohexene], the BP in series [1] was 113.7 C. For the same molecule, the SP in series [2] is on record as 7.51 (cal/cm^3)^1/2. Besides, the CS/CS113 in series [3] (setting [4]) turned out to be 70.2.

Regarding `OCC(C(F)(F)F)(C(F)(F)F)C(F)(F)F` [3,3,3-trifluoro-bis-2,2-(trifluoromethyl)-1-propanol], the BP in series [1] is on record as 86.1 C. For the same molecule, the SP in series [2] was 6.81 (cal/cm^3)^1/2. Besides, the CS/CS113 in series [3] (setting [4]) is given as 40.7.

`COC(C(F)(F)F)C(F)(F)F` [methyl 2,2,2-trifluroethyl-1-(trifluoromethyl)ether]: in series [1], the BP is given as 50.8 C. For the same molecule, in series [2], the SP is 7.26 (cal/cm^3)^1/2. Also, the CS/CS113 in series [3] (setting [4]) is on record as 107.3.

Turning to `FC(F)(F)C(F)(F)C(F)(F)C(F)(F)C1(F)OC(F)(F)C(F)(F)C1(F)F` (stereo not shown) [perfluoro-2-butyltetrahydrofuran], the BP in series [1] was 103.0 C. Further, the SP in series [2] is 6.94 (cal/cm^3)^1/2. Moreover, in series [3] (setting [4]), the CS/CS113 came to 65.4.

`FC(F)(F)/C=C/C(F)(F)Br` [(E)-1-bromo-1,1,4,4,4-pentafluoro-2-butene]: the BP in series [1] is recorded as 40.0 C. The SP in series [2] was 7.37 (cal/cm^3)^1/2. For the same molecule, the CS/CS113 in series [3] (setting [4]) was 36.6.
